These are literature values, as cited in publication PMC7730441, “Acetylcholinesterase and butyrylcholinesterase inhibitory activities of khellactone coumarin derivatives isolated from Peucedanum japonicum Thurnberg” (Scientific Reports, 2020).

The series deals with AChE. Particulars: cited from earlier work.
Setting [1] is: flavonoids from Agrimonia pilosa.
Where [2] appears, read: verbascosides from Harpagophytum procumbens.

In brackets after ≈: the same amount, converted by molar mass. Where two headings read alike, the source gives them in different places.

On to `O=C(/C=C/c1ccc(O)cc1)OC[C@H]1O[C@@H](Oc2c(-c3ccc(O)cc3)oc3cc(O)cc(O)c3c2=O)[C@H](O)[C@@H](O)[C@@H]1O` [tiliroside], for which, under setting [1], the IC50 (commonly the concentration that inhibits the measured activity by half) was 23.5 µM.
`COc1cc2oc(-c3ccc(O)cc3)cc(=O)c2c(O)c1[C@@H]1O[C@H](CO)[C@@H](O)[C@H](O)[C@H]1O` [swertisin, isovitexin-7-O-methyl ether]: the IC50 (converted from µg/mL, from Anthocleista vogelii) is 71.9 µM. Also, the “IC50 AChE” value (from Anthocleista vogelii) is listed as 32.09 µg/mL (≈ 71.9 µM).
For `C[C@@H]1O[C@@H](O[C@@H]2[C@@H](O)[C@H](OCCc3ccc(O)c(O)c3)O[C@H](CO)[C@H]2OC(=O)/C=C/c2ccc(O)c(O)c2)[C@H](O)[C@H](O)[C@H]1O` [acteoside], under setting [2], the IC50 is 19.9 µM.
With `C[C@@H]1O[C@@H](O[C@@H]2[C@@H](O)[C@H](OCCc3ccc(O)c(O)c3)O[C@H](CO)[C@H]2O)[C@H](O)[C@H](O)[C@H]1O` [decaffeoylverbascoside], under setting [2], the IC50 was 16.1 µM.
For the molecule `CC1(C)Oc2cc3oc(=O)ccc3cc2C[C@@H]1O` [decursinol], under “from Angelica gigas Nakai”, the IC50 is 28 µM.
For the molecule `COc1ccc2c(c1OC)CN1CCc3cc4c(cc3C1=C2)OCO4` [dihydroberberine], the IC50 is 1.18 µM.
In the case of `COc1cc2ccc(=O)oc2cc1O` [scopoletin], where the note is “from Vaccinium oldhami Miquel”, the IC50 is 52 µM.
With `O=c1c(O)c(-c2ccc(O)c(O)c2)oc2cc(O)cc(O)c12` [quercetin], the IC50 under setting [1] was […].
For the molecule `CC1=C2OCC(C)c3ccc(C)c(c32)C(=O)C1=O` (stereo not drawn) [mansonone E], the concentration for half-maximal inhibition (IC50) (from Mansonia gagei) was 23.5 µM.
On to `CCC(C)C(=O)c1c(O)c2c(c3c(-c4ccccc4)cc(=O)oc13)OC(C)(CCC=C(C)C)C=C2` (stereo not drawn) [mesuagenin B], for which the IC50 (from Mesua elegans) was 0.7 µM.
Take `COC(C)(C)[C@H](O)CCC(C)=CCOc1c2ccoc2cc2oc(=O)ccc12` [(R)-( +)-6′-hydroxy-7′-methoxybergamottin]: the IC50 (from Citrus hystrix) was 11.2 µM.
